US12617777B2, “GPR84 antagonists and uses thereof” (Liminal BioSciences Limited, priority 2021, dated 2026)

What was measured:
neutrophils = assay: Neutrophil migration assay (embelin as chemotactic agent, ATPlite readout); assay type: cell-based; details: for IC50: Neutrophil, human neutrophils, embelin as chemotactic agent, read-out: Human Neutrophil migration inhibition IC50; for Human Neutrophil migration inhibition - fold potency to Control Compound: normalized to GPR84 antagonist Control Compound (average IC50 131 nM)
Description: Neutrophil migration assay. After isolation, neutrophils were resuspended in chemotaxis buffer (DMEM supplemented with 10 mM HEPES) at a concentration of 8.9×10^6 cells/ml. In a 96-well plate, 20 μl of compound solution in chemotaxis buffer is added to 180 μl of cell suspension. After incubation at 37° C. for 30 minutes, 75 μl of cell suspension is transferred in the upper chamber of a 5 μm pore size Corning HTS transwell. 235 μl of chemotaxis buffer containing the chemotactic agent (embelin) is added to the lower chamber of the transwell. After a 60-minute incubation time at 37° C. in 5%0 C02, the upper chamber of the transwell is removed and the plate is centrifuged at 1500 rpm for 6 minutes. Supermatant is removed and cells resuspended in 100 ul of PBS. ATP content was assessed using ATPlite Luminescence Assay System® according to manufacturer instructions (Perkin Elmer, Buckinghamshire, UK). Briefly, 50 μl of ATPlite buffer and 50 μl of lysis solution is added to the lower chamber of the Transwells. After incubation at room temperature, in the dark with constant agitation for 5 minutes, 150 μl of cell lysate is transferred in a 96 wells white plate and incubated for 10 minutes in the dark. Luminescence is read on a TECAN plate reader, Infinite M1000 (Tecan, Morrisville, NC).
The compound numbers correspond to the compound numbers in Table 1. […] Normalization of the results takes the donor's variation into account.

human GPR84 receptor = target: T1, human GPR84 receptor (Homo sapiens, UniProt Q9NQS5); assay: Gαi biosensor BRET assay in HEK293 cells (antagonism of ZQ-16); assay type: cell-based; details: for inhibition at 10 µM: HEK293, single concentration 10 μM (designated F); for IC50: HEK293 cells, antagonism of 200 nmol/L ZQ-16; for inhibition at 2 µM: HEK293, single concentration 2 μM (designated A); for inhibition at 5 µM: HEK293, single concentration 5 μM (designated D)
T1 construct: host or cells: HEK293, transient transfection
T1 sequence (Q9NQS5 whole entry): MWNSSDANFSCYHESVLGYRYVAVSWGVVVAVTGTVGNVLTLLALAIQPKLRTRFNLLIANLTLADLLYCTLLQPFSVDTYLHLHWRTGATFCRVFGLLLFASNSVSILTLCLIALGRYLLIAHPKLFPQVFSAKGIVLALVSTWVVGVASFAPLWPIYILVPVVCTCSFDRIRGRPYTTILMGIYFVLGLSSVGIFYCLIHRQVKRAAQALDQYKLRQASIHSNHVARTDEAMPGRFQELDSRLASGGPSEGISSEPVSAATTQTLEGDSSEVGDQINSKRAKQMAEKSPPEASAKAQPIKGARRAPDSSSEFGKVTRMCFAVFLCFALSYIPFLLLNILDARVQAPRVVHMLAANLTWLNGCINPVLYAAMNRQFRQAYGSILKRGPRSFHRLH
Outline: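 HEK293 cells transiently expressing human GPR84, Gαi2-Rluc8, GFP10-Gγ2 and Gβ1, in Tyrode's buffer pH 7.5. Compounds preincubated 5 min at 37° C, then 200 nmol/L ZQ-16 for 5 min at room temperature; coelenterazine 400A 5 μmol/L. BRET2 acceptor/donor ratio, background- and vehicle-corrected net BRET.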

SMILES | IC50 (neutrophils) | Human Neutrophil migration inhibition - fold potency to Control Compound (neutrophils) | inhibition at 10 µM (human GPR84 receptor) | IC50 (human GPR84 receptor) | inhibition at 6.25 µM (human GPR84 receptor; HEK293, single concentration 6.25 μM (designated E)) | inhibition at 2 µM (human GPR84 receptor) | inhibition at 5 µM (human GPR84 receptor)
Cc1cc(N2CCN(Cc3ccccn3)CC2)ccc1-c1cn(CC2CCC(C)(C)CO2)nn1 (centres unmarked) [Compound I-562] | ≤ 0.3 µM | A (IC50 of >1.0-fold relative to Control Compound) | > 75% | ≤ 0.3 µM | – | – | –
Cc1cc(C#CC2CC2)ccc1-c1cn(CC2CCCCO2)nn1 (centres unmarked) [Compound I-34] | 1 to 3 µM | C (IC50≤0.5-fold relative to Control Compound) | – | > 3 µM | 50 to 75% | – | –
Cc1cc(C#CCN2CC(C)(C)C2)ccc1-c1cn(CC2CCCCO2)nn1 (centres unmarked) [Compound I-119] | 0.3 to 1 µM | C (IC50≤0.5-fold relative to Control Compound) | – | 1 to 3 µM | – | – | –
Cc1cc(N2CCN(Cc3ccccn3)CC2)ccc1-c1cn(CC2OCC3(CC3)CO2)nn1 [Compound I-637] | ≤ 0.3 µM | A (IC50 of >1.0-fold relative to Control Compound) | – | 0.3 to 1 µM | – | > 75% | –
Cc1cc(N2CCN(Cc3ccccn3)CC2)ccc1-c1cn(C[C@@H]2CCC(F)(F)CO2)nn1 (stereo in doubt) [Compound I-636] | ≤ 0.3 µM | A (IC50 of >1.0-fold relative to Control Compound) | > 75% | ≤ 0.3 µM | – | – | –
Cc1cc(C#CCNc2ccccc2)ccc1-c1cn(CC2CCCCO2)nn1 (centres unmarked) [Compound I-68] | 0.3 to 1 µM | B (IC50 of >0.5-≤1.0-fold relative to Control Compound) | – | 1 to 3 µM | – | – | 50 to 75%
Cc1ccc(C#CC2CC2)cc1-n1nc(CC2CCCO2)oc1=O (centres unmarked) [Compound I-17] | ≤ 0.3 µM | B (IC50 of >0.5-≤1.0-fold relative to Control Compound) | > 75% | 0.3 to 1 µM | – | – | –
CO[C@@H](c1cn(C[C@H]2CCCCO2)nn1)c1cc(C#CC2CC2)ccc1C [Compound I-510] | ≤ 0.3 µM | B (IC50 of >0.5-≤1.0-fold relative to Control Compound) | – | 0.3 to 1 µM | – | 50 to 75% | –
Cc1ccc(C#CC2CC2)cc1Cc1nnn(CC2CCCCO2)n1 (centres unmarked) [Compound I-418] | 1 to 3 µM | C (IC50≤0.5-fold relative to Control Compound) | – | 0.3 to 1 µM | – | > 75% | –
CN(C)c1cc(C#CCNCc2ccccc2)ccc1-c1cn(CC2CCCCO2)nn1 (centres unmarked) [Compound I-188] | ≤ 0.3 µM | A (IC50 of >1.0-fold relative to Control Compound) | – | > 3 µM | – | – | –
CCc1cc(C#CC2CC2)ccc1-c1cn(CC2CCCCO2)nn1 (centres unmarked) [Compound I-77] | ≤ 0.3 µM | A (IC50 of >1.0-fold relative to Control Compound) | – | 0.3 to 1 µM | – | – | > 75%
Cc1cc(N2CCN(Cc3ccccn3)CC2)ccc1-c1cn(C[C@H]2CCC(F)(F)CO2)nn1 (stereo in doubt) [Compound I-635] | 0.3 to 1 µM | C (IC50≤0.5-fold relative to Control Compound) | 50 to 75% | ≤ 0.3 µM | – | – | –
CCc1cc(N2CCN(Cc3ccccn3)CC2)cnc1-c1cn(C[C@H]2CCCCO2)nn1 [Compound I-459] | ≤ 0.3 µM | C (IC50≤0.5-fold relative to Control Compound) | > 75% | 1 to 3 µM | – | – | –
CCc1cc(N2CC(C)(C)C2)ccc1-c1cn(CC2OCC(C)(C)CO2)nn1 [Compound I-618] | ≤ 0.3 µM | A (IC50 of >1.0-fold relative to Control Compound) | > 75% | ≤ 0.3 µM | – | – | –
Cc1cc(C#CCn2cc(-c3ccc([N+](=O)[O-])cc3)nn2)ccc1-c1cn(CC2CCCCO2)nn1 (centres unmarked) [Compound I-454] | ≤ 0.3 µM | A (IC50 of >1.0-fold relative to Control Compound) | > 75% | ≤ 0.3 µM | – | – | –
FC(F)(F)c1cc(C#CC2CC2)ccc1-c1cn(CC2CCCCO2)nn1 (centres unmarked) [Compound I-81] | 0.3 to 1 µM | C (IC50≤0.5-fold relative to Control Compound) | 50 to 75% | > 3 µM | – | – | –
Cc1cc(N2CC(C)(CNc3ccccn3)C2)ccc1-c1cn(CC2CCCCO2)nn1 (centres unmarked) [Compound I-464] | ≤ 0.3 µM | C (IC50≤0.5-fold relative to Control Compound) | – | 0.3 to 1 µM | – | > 75% | –
CC(C)Oc1cc(C#CCN2CC(C)(C)C2)ccc1-c1cn(C[C@H]2CCCCO2)nn1 [Compound I-413] | ≤ 0.3 µM | B (IC50 of >0.5-≤1.0-fold relative to Control Compound) | – | 0.3 to 1 µM | – | > 75% | –
Cc1cc(N2CCN(Cc3ccccn3)CC2)ccc1-c1cn(CC2CC(C)(C)CO2)nn1 (centres unmarked) [Compound I-530] | ≤ 0.3 µM | A (IC50 of >1.0-fold relative to Control Compound) | > 75% | ≤ 0.3 µM | – | – | –
Cc1cc(C#CC2CC2)cnc1-c1cn(C[C@H]2CCCCO2)nn1 [Compound I-245] | 0.3 to 1 µM | C (IC50≤0.5-fold relative to Control Compound) | > 75% | 1 to 3 µM | – | – | –
CCc1cc(C#CCO)ccc1-c1cn(CC2OCC(C)(C)CO2)nn1 [Compound I-620] | ≤ 0.3 µM | A (IC50 of >1.0-fold relative to Control Compound) | > 75% | ≤ 0.3 µM | – | – | –
CC(C)Oc1cc(C#CC2CC2)ccc1-c1cn(CC2CCCCO2)nn1 (centres unmarked) [Compound I-187] | ≤ 0.3 µM | B (IC50 of >0.5-≤1.0-fold relative to Control Compound) | – | > 3 µM | – | – | –
CC(C)c1cc(C#CC2CC2)ccc1-c1cn(CC2CCCCO2)nn1 (centres unmarked) [Compound I-88] | 1 to 3 µM | C (IC50≤0.5-fold relative to Control Compound) | – | 1 to 3 µM | – | – | –
Cc1cc(C#CCN(C)Cc2ccccc2)ccc1-c1cn(CC2CCCCO2)nn1 (centres unmarked) [Compound I-76] | ≤ 0.3 µM | B (IC50 of >0.5-≤1.0-fold relative to Control Compound) | – | 0.3 to 1 µM | – | – | > 75%
Cc1cc(N2CCN([C@@H](C)c3ccccn3)CC2)ccc1-c1cn(C[C@H]2CCCCO2)nn1 [Compound I-612] | ≤ 0.3 µM | A (IC50 of >1.0-fold relative to Control Compound) | > 75% | 0.3 to 1 µM | – | – | –
CC(C)c1cc(C#CCN2CC(C)(C)C2)cnc1-c1cn(CC2CCCCO2)nn1 (centres unmarked) [Compound I-462] | ≤ 0.3 µM | C (IC50≤0.5-fold relative to Control Compound) | > 75% | 1 to 3 µM | – | – | –
CO[C@H](c1cn(C[C@H]2CCCCO2)nn1)c1cc(C#CC2CC2)ccc1C [Compound I-511] | ≤ 0.3 µM | A (IC50 of >1.0-fold relative to Control Compound) | – | ≤ 0.3 µM | – | > 75% | –
